Data taken from PubChem BioAssay AID2060485 (Molecular Pharmacology Branch, DTP, NCI, 2025).

System: A375 multi-cell spheroids with HUVEC/MSC, viability
Experiment: Anticancer human tumor A375 cell line growth inhibition [GQUAD];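 also: spheroids exposed to compounds for seven days before readout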
Details: for IC50: curve of first compound; for viability, T/C: stronger effect = lower value
Excerpt: DNA G-quadruplex Stabilizer Agents in Combinations in Complex Spheroids
A high-throughput screen of multi-cell type tumor spheroids was designed to identify active combinations of DNA G-quadruplex stabilizer agents and targeted small molecules. Complex spheroids include a stromal component modeled by human endothelial cells (HUVEC) and fibroblasts modeled by human mesenchymal stem cells (MSCs). The concentration ranges selected for each drug and investigational agent were based upon clinically achievable concentrations if the clinical Cmax of the agent was known.
Compounds. The drugs and investigational agents: pidnarulex (CX-5461; NSC782164), APTO-253 (NSC789042), BRACO-19 (NSC847499), peposertib (NSC802822), ceralasertib (NSC780249), elimusertib (NSC800525), camonsertib (NSC841442), AZD-1390 (NSC803789), olaparib (NSC753686), talazoparib (NSC767125), ART-558 (NSC835418), sotorasib (NSC818433), MRTX-1133 (NSC836407), SN-38 (NSC673596), topotecan (NSC609699), etoposide (NSC141540), doxorubicin (NSC123127), gemcitabine (NSC613327), 5-fluorouracil (NSC19893), paclitaxel (NSC125973), vemurafenib (NSC761431), panobinostat (NSC761190), R-306465 (JNJ-16241199; NSC773264), adavosertib (NSC754352), TP-3654 (NSC805149), carboplatin (NSC241240), KSQ-4279 (NSC840948), and staurosporine (NSC755774) were obtained from the National Cancer Institute (NCI) Developmental Therapeutics Program Chemical Repository (34). The FDA-approved anticancer drug set is available from the NCI Developmental Therapeutics Program. […] The stock solutions were prepared in dimethyl sulfoxide (DMSO, Sigma-Aldrich, St. Louis, MO, cat. D2650) at 800-fold the tested concentration and stored at -70 degrees C prior to their use. All drugs and investigational agents were tested over a range starting from a high concentration at or near the clinical Cmax and decreasing in half-log increments. If the clinical Cmax for an agent had not been determined, the highest concentration tested was 10 microM.
2.3 Cell Culture. All cells were maintained in an incubator at 37 degrees C and 5% CO2 with 95% humidity. The PDC lines were cultured according to standard operating procedures established by the NCI PDMR. All PDCs were thawed and cultured in Matrigel-coated flasks prepared with a working solution of 1X Ham's F-12 nutrient mix, without supplementation (Invitrogen, cat. 11765054), 100 U/mL penicillin-streptomycin (Invitrogen, cat. 15140122), and 2.5% Matrigel (Corning Inc., cat. 354248) for the first three passages. The 857933-349-R-J2-PDC line was cultured in 6C/Colon 1B media, which includes advanced DMEM/F-12 (Thermo Fisher Scientific, cat. 12634028), 10 mM HEPES (Thermo Fisher Scientific, cat. 15630080), 1X GlutaMAX supplement (Thermo Fisher Scientific, cat. 35050061), 0.1 mg/mL primocin (InvivoGen, cat. ant-pm-2), 10% defined fetal bovine serum, heat inactivated (HyClone Laboratories Inc., cat. SH30070.03HI), 50% L-WRN conditioned media (ATCC, cat. CRL-3276), 1.25 mM N-Acetyl-L-cysteine (Sigma-Aldrich, cat. A9165), 10 mM nicotinamide (Sigma-Aldrich, cat. N0636), 1X B-27 supplement (Thermo Fisher Scientific, cat. 17504044), 1X N-2 supplement (Thermo Fisher Scientific, cat. 17502048), 10 microM Y-27632 dihydrochloride (Tocris Bioscience, cat. 1254), and 50 ng/mL human EGF recombinant protein (Thermo Fisher Scientific, cat. PHG0311). The 485176-168-R4-J1-PDC line was cultured in Panc media, which includes all 6C/Colon 1B media components plus 100 ng/mL human FGF-10 (Thermo Fisher Scientific, cat. 100-26), 500 nM SB-431542 (Selleckchem, cat. S1067), and gastrin (Tocris, cat. 3006).
[…]

SMILES: C=CCn1c(=O)c2cnc(Nc3ccc(N4CCN(C)CC4)cc3)nc2n1-c1cccc(C(C)(C)O)n1 + CN(C)c1ccc(Nc2c3ccc(NC(=O)CCN4CCCC4)cc3nc3cc(NC(=O)CCN4CCCC4)ccc23)cc1
- IC50 (second compound 0.0316 µM): 1160 nM
- IC50 (second compound 0.1 µM): 1230 nM
- IC50 (second compound 0.316 µM): 1310 nM
- IC50 (second compound 1 µM): 1380 nM
- IC50 (second compound 3.16 µM): 1440 nM
- IC50 (second compound 10 µM): 1400 nM
- viability, T/C (second compound 0.0316 µM, first compound 0.0316 µM): 99.7%
- viability, T/C (second compound 0.0316 µM, first compound 0.1 µM): 105%
- viability, T/C (second compound 0.0316 µM, first compound 0.316 µM): 96.4%
- viability, T/C (second compound 0.0316 µM, first compound 1 µM): 55.9%
- viability, T/C (second compound 0.0316 µM, first compound 3.16 µM): 12.3%
- viability, T/C (second compound 0.0316 µM, first compound 10 µM): 7.71%
- viability, T/C (second compound 0.1 µM, first compound 0.0316 µM): 98.4%
- viability, T/C (second compound 0.1 µM, first compound 0.1 µM): 100%
- viability, T/C (second compound 0.1 µM, first compound 0.316 µM): 104%
- viability, T/C (second compound 0.1 µM, first compound 1 µM): 58%
- viability, T/C (second compound 0.1 µM, first compound 3.16 µM): 15.1%
- viability, T/C (second compound 0.1 µM, first compound 10 µM): 7.18%
- viability, T/C (second compound 0.316 µM, first compound 0.0316 µM): 106%
- viability, T/C (second compound 0.316 µM, first compound 0.1 µM): 98.7%
- viability, T/C (second compound 0.316 µM, first compound 0.316 µM): 99.9%
- viability, T/C (second compound 0.316 µM, first compound 1 µM): 60.7%
- viability, T/C (second compound 0.316 µM, first compound 3.16 µM): 14.2%
- viability, T/C (second compound 0.316 µM, first compound 10 µM): 6.94%
- viability, T/C (second compound 1 µM, first compound 0.0316 µM): 102%
- viability, T/C (second compound 1 µM, first compound 0.1 µM): 102%
- viability, T/C (second compound 1 µM, first compound 0.316 µM): 107%
- viability, T/C (second compound 1 µM, first compound 1 µM): 63.8%
- viability, T/C (second compound 1 µM, first compound 3.16 µM): 15.3%
- viability, T/C (second compound 1 µM, first compound 10 µM): 6.9%
- viability, T/C (second compound 3.16 µM, first compound 0.0316 µM): 108%
- viability, T/C (second compound 3.16 µM, first compound 0.1 µM): 96.1%
- viability, T/C (second compound 3.16 µM, first compound 0.316 µM): 106%
- viability, T/C (second compound 3.16 µM, first compound 1 µM): 66%
- viability, T/C (second compound 3.16 µM, first compound 3.16 µM): 15.6%
- viability, T/C (second compound 3.16 µM, first compound 10 µM): 8.34%
- viability, T/C (second compound 10 µM, first compound 0.0316 µM): 103%
- viability, T/C (second compound 10 µM, first compound 0.1 µM): 93.3%
- viability, T/C (second compound 10 µM, first compound 0.316 µM): 105%
- viability, T/C (second compound 10 µM, first compound 1 µM): 63.5%
- viability, T/C (second compound 10 µM, first compound 3.16 µM): 17.4%
- viability, T/C (second compound 10 µM, first compound 10 µM): 8.32%
